Source: article PMC4861903, “Synthesis of a highly water-soluble acacetin prodrug for treating experimental atrial fibrillation in beagle dogs” (Scientific Reports, 2016)

Columns and labels:
[1] = target: T1, IKACh (acetylcholine-activated K+ current) (Rattus norvegicus, UniProt P48548+P63251); assay: Whole-cell IKACh elicited by 5 μM carbachol in rat atrial myocytes; format: cell-based; settings: 30 μM, at −100 mV, n = 5
T1 construct: endogenous in cells; host or cells: atrial myocytes dissociated from male Sprague-Dawley rats
T1 sequence (P63251 1-501): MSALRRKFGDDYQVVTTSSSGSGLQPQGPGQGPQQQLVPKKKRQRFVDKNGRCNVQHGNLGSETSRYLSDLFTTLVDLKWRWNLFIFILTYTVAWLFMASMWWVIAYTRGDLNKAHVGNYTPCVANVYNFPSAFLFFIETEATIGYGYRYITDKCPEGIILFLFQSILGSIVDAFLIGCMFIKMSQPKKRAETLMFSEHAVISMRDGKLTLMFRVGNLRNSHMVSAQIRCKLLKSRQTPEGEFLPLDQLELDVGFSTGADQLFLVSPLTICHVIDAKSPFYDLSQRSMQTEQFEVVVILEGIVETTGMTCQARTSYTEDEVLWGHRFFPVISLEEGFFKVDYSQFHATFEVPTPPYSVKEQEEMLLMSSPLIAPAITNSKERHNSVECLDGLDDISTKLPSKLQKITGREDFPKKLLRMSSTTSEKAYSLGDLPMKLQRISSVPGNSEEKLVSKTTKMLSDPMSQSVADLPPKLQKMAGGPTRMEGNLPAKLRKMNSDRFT
T1 sequence (P48548 1-419): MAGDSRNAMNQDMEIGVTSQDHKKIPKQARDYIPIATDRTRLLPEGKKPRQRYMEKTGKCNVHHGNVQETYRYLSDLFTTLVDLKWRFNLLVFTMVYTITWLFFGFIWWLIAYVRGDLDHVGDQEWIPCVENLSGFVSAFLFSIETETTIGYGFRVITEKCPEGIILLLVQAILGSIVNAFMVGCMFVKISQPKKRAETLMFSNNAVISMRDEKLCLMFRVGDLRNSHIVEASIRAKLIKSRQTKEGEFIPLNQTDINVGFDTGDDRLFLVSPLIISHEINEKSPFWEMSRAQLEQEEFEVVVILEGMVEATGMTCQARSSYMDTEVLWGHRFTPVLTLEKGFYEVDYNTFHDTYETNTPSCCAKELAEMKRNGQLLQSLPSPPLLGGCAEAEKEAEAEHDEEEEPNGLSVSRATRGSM
Description: Whole-cell currents of hKv1.5 and hKv4.3 were recorded in established HEK 293 cell lines stably expressing hKv1.5 (KCN5A) and hKv4.3 (KCND3) and IKACh was determined in isolated rat atrial myocytes as described previously[12][31][32] and in Supplemental Materials. […]
Effects of acacetin prodrug on cardiac potassium currents […]
Cells on a coverslip were transferred to an open cell chamber (0.5 ml) mounted on the stage of an inverted microscope and superfused with Tyrode’s solution at 2 mL/min. The whole cell patch-clamp technique was used as described previously.1, 2 The whole-cell membrane currents were measured using an EPC-10 amplifier and Pulse software (Heka Elektronik, Lambrecht, Germany). Borosilicate glass electrodes (1.2-mm OD) were pulled with a Brown/Flaming puller (model P-97, Sutter Instrument, Nato, CA) and had resistances of 1.5~2.5 MΩ when filled with the pipette solution. A 3-M KCl agar bridge was used as the reference electrode. The tip potential was zeroed before the patch pipette contacted the cell. After a giga-Ohm seal was obtained, the cell membrane was ruptured by applying gentle pressure to establish a whole-cell configuration. […] The liquid junction potential (14.7 mV) calculated with the software Clampex was not corrected in the experiment and data […]
Whole-cell current of IKACh was determined in isolated rat atrial myocytes. […]

[2] = Ex vivo bioconversion of acacetin prodrug in rat liver microsome; format: in vitro ADME; settings: 37 °C, n = 3
Description: The ex vivo bioconversion of acacetin prodrug was determined in rat plasma or rat hepatic microsome that contains high content alkaline phosphatase, as described previously[30] and in Supplemental Materials. The in vivo bioconversion of acacetin prodrug was determined in beagle dogs as described in Supplemental Materials. […]
Bioconversion of acacetin prodrug was also determined in rat hepatic microsomes containing high content alkaline phosphatase,5 as described previously.6 Sprague-Dawley rat liver microsomes were purchased from Invitrogen (Hong Kong, China). The reaction mixture was prepared in 50 mM Tris-HCl buffer (pH = 7.4) with 1 mM NADPH (nicotinamide adenine dinucleotide phosphate) and 0.5 mg/mL (total protein) microsomes. Prodrug solutions were added to the microsomes reaction mixture with a final concentration of 5 µg/mL. The reaction solution was incubated in a water bath at 37℃ and shaken at 60 rpm for 1 h. The samples were collected at 0, 1, 2, 15, 30 and 60 min. The reaction was terminated by adding 200 μL cold methanol containing internal standard (pentamethylquercetin, 50 ng/ml). After centrifugation at 12000 g for 30 min, the supernatant was immediately analyzed by HPLC. […]

hERG channels = target: T2, hERG channels (Homo sapiens, UniProt Q12809); assay: hERG current in HEK 293 cells; format: cell-based; settings: 30 μM, n = 4, data not shown
T2 construct: expressed in transfected cells; host or cells: HEK 293
T2 sequence (Q12809 whole entry): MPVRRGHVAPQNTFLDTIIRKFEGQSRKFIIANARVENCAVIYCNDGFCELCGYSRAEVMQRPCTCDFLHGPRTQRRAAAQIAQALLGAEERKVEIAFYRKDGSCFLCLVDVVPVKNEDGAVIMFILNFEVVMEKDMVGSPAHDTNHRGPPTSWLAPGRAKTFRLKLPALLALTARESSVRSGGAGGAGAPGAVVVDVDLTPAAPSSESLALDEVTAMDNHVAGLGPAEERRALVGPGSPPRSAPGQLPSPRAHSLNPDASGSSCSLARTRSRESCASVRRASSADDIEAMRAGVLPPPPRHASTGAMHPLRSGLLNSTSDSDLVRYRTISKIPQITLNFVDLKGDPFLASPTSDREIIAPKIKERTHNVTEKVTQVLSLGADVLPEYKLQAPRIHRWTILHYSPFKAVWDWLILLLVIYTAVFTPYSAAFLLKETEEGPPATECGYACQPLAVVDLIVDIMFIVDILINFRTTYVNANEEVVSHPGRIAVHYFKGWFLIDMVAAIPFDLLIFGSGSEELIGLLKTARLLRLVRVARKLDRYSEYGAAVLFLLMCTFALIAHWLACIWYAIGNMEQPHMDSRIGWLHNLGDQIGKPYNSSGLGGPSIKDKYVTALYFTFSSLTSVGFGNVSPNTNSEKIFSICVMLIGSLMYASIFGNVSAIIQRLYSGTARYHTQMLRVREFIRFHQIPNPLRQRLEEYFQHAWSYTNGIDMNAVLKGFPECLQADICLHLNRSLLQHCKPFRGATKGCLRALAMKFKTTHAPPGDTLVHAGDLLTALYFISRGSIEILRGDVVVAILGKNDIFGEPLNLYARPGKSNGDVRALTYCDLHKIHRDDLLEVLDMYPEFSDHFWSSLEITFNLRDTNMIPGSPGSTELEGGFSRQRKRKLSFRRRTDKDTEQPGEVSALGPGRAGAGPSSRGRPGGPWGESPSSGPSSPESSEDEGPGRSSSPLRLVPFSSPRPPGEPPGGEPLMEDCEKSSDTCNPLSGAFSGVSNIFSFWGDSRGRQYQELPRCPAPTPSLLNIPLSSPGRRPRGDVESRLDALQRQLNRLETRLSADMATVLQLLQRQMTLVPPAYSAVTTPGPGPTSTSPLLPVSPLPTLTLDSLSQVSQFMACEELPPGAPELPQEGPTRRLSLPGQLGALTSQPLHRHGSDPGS

For COc1ccc(-c2cc(=O)c3c(O)cc(OP(=O)([O-])[O-])cc3o2)cc1.[Na+].[Na+] [acacetin prodrug, phosphate sodium salt of acacetin], the “inhibition of IK.ACh” value [1] was “no significant inhibition”, the “prodrug converted into acacetin” value ([2]; 1 min incubation) was 60% and the “prodrug converted into acacetin” value ([2]; 30 min incubation) was 100%. For the same compound, the “effect on hERG channels” value (hERG channels) was “no such effect”.
